Source: patent publication US20100167397A1, “ENDOCRINE CELL LINES AND METHOD OF USING THE SAME” (KYOWA HAKKO KOGYO CO., LTD., priority 2002, published 2010)
No end group written: not given here.

Tests used:
[1] = biological target: T1, GPR41 (Homo sapiens, UniProt O14843); experiment: Screening of ligands or agonists of GPR41 (pAGal9-GPR41 in GBCRC6, Renilla luciferase); type: cell-based; conditions: for induction ratio of the reporters (agonist for GPR41): 100 μmol/L, 6 hours
T1 construct: expressed in transfected cells; host or cells: GBCRC6 (Namalwa KJM-1 derived)
T1 sequence (O14843 1-346): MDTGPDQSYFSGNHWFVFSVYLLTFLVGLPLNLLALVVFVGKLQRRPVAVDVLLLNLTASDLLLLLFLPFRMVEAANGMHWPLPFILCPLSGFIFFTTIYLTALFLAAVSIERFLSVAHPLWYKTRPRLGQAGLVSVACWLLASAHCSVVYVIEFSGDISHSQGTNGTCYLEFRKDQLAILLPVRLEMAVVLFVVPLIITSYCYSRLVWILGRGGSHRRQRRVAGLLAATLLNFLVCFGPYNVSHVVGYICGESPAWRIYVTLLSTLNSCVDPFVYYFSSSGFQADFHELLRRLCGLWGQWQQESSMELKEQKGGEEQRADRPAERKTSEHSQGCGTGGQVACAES
Method: With regard to a template, human chromosomal DNA (100 ng; manufactured by Clontech) was used. With regard to the GPR41 gene-specific primers, synthetic DNAs having sequences mentioned in SEQ ID NOS: 183 and 184, respectively, were used. To the above primers, a HindIII site and a NotI site were introduced, respectively. A PCR-amplified fragment was cleaved with HindIII and NotI to prepare a HindIII-NotI fragment. A plasmid […] was cleaved with HindIII and NotI to prepare a HindIII-NotI fragment. The HindIII-NotI fragment derived from PCR fragment and the HindIII-NotI fragment derived from […] were ligated to construct pAGal9-GPR41 which was an inducible expression plasmid of GPR41.

[2] = biological target: T2, GPR43 (Homo sapiens, UniProt O15552); experiment: Screening ligands or agonists of GPR43 (pAGal9-GPR43 in GBCRC6, Renilla luciferase); type: cell-based; conditions: 100 μmol/L; 6 hours
T2 construct: expressed in transfected cells; host or cells: GBCRC6 (Namalwa KJM-1 derived, co-expressing Gαs-q and Gαs-i)
T2 sequence (O15552 1-330): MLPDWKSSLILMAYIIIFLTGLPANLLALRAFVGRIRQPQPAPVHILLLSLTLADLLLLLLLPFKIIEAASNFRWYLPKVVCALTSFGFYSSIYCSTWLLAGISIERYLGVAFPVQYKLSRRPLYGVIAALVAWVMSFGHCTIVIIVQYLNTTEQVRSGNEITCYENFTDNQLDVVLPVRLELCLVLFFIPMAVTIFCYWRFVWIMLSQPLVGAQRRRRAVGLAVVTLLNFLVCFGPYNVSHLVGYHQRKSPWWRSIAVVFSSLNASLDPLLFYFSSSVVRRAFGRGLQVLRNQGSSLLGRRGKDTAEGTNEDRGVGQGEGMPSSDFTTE
Method: According to the method mentioned in (1) of Example 20, the GPR43 gene was prepared by PCR and the gene was inserted in an expression vector pAGal9-d to construct pAGal9-GPR43 which is an inducible expression plasmid of GPR43. With regard to a template, human chromosomal DNA (100 ng; manufactured by Clontech) was used. With regard to the GPR43 gene-specific primers, synthetic DNA having sequences mentioned in SEQ ID NOS: 181 and 182, respectively, were used. A HindIII site and a NotI site were introduced to the above primers, respectively.
PCR-amplified fragment was cleaved with HindIII and NotI to prepare a HindIII-NotI fragment. A plasmid pAGal9-d was cleaved with HindIII and NotI to prepare a HindIII-NotI fragment.
According to the method mentioned in (1) of Example 21, pAGal9-GPR43 was transfected to GBCRC6 to prepare stable transformants.

[3] = system: other GPCRs; experiment: Specificity: assay cells to which other GPCRs were transfected; type: cell-based
[4] = system: gene expression via CRE; experiment: CRE-luciferase reporter stimulation in Namalwa KJM-1 / KJMGER8 cells carrying pACREpluc or pACRERluc; type: cell-based, human
Method: A reporter plasmid pACREpluc was dissolved in a TE buffer so as to make 1 μg/μl and the plasmid was transfected to Namalwa KJM-1 cells by an electroporation method [Cytotechnology, 3, 133 (1990)] using 4 μg to 6×10^6 cells to give transformants.
The transformants were subcultured in RPMI 1640-ITPSG medium containing hygromycin B (300 μg/ml).
In order to confirm whether gene expression via CRE took place, the transformants were stimulated under the following condition using 5′-N-ethylcarboxamide adenosine (NECA: manufactured by Sigma) which is an agonist of type 2a adenosine receptor (A2a), forskolin (manufactured by Sigma) which is an activator for adenylate cyclase or A23187 (manufactured by Research Biochemicals International) which is a calcium ionophore.
Thus, the above stable transformants were dispensed in an amount of 1×10^5 cells per well of a 48-well plate, then NECA (final concentration 100 nmol/L), forskolin (final concentration 100 μmol/L) or A23187 (final concentration 10 μmol/L) was added and stimulation was conducted by incubating in a CO2 incubator for 5 hours.
Accordingly, when the cells are stimulated by any substance, it is believed to be preferred to measure the activity after 6 hours from the stimulation.
After the incubation, firefly luciferase activity in each well was measured using the method mentioned in (4) of Example 18. With regard to a device for the measurement, Micro Lumat LB96P (manufactured by Berthold) was used. Seventeen clones having high activity were selected.
The 17 clones were used, stimulation with NECA was applied by the same manner as in the above (2), comparison with the case where no stimulation with NECA was conducted and 8 clones where luciferase activity rose to an extent of 60-fold or more were selected. Such 8 clones were named GBC1 to GBC8 respectively.
After that, coelenterazine h (Molecular Probes) (final concentration 250 nmol/L) was added to measure the activity of Renilla reniformis luciferase. For the measurement of the activity, a Wallac 1420 ARVOsx Multilable Counter (manufactured by Wallac Berthold Japan) was used. Nine clones having high activity were selected. The 9 clones were named GBCR1 to GBCR9, respectively.
With regard to the 9 clones, stimulation with NECA was conducted and, as compared with the case no stimulation with NECA was done, 2 clones where the activity of Renilla reniformis luciferase increased to an extent of not less than 18-fold were selected. The 2 clones were named GBCR1 and GBCR2, respectively.

[5] = biological target: T3, G10d (Homo sapiens, UniProt O15218); experiment: Screening of ligands or agonists of G10d (pAGal9-G10d in GBCRC6, Renilla luciferase); type: cell-based; conditions: 6 hours
T3 construct: expressed in transfected cells; host or cells: GBCRC6 (Namalwa KJM-1 derived)
Method: According to the method mentioned in (1) of Example 20, the G10d gene was prepared by PCR and the gene was inserted in an expression vector pAGal9-d to construct pAGal9-G10d which is an inducible expression plasmid of G10d. With regard to a template, single-stranded DNAs derived from human spleen were used. With regard to the G10d gene-specific primers, synthetic DNAs having sequences mentioned in SEQ ID NOS: 185 and 186 were used. To the above primers, a HindIII site and a NotI site were introduced, respectively.
A PCR-amplified fragment was cleaved with HindIII and NotI to prepare a HindIII-NotI fragment. A plasmid pAGal9-d was cleaved with HindIII and NotI to prepare a HindIII-NotI fragment.
(§1) According to the method mentioned in (1) of Example 21, pAGal9-G10d was transfected to GBCRC6 to prepare stable transformants. […] It is possible to screen an antagonist for G10d using α-MSH or ACTH as an agonist.

[6] = system: GBCRC6 to which control vector (pAGal9-d) was transfected; experiment: Control: GBCRC6 to which control vector (pAGal9-d) was transfected; type: cell-based, human
From the text: as §1

[7] = biological target: T4, melanocortin receptor type 1 (MC1R) (Homo sapiens, UniProt Q01726); experiment: MC1R reporter assay in GBCR2 (pAGal9-MC1R), Renilla reniformis luciferase; type: cell-based; conditions: GBCR2 with pAGal9-MC1R, 17β-estradiol 10 nmol/L 24 hours; various concentrations, 6 hours
T4 construct: expressed in transfected cells; host or cells: GBCR2 (Namalwa KJM-1 derived)
Method: One of the plasmids was named pAGal9-MC1R. The nucleotide sequence was determined by the method mentioned in the above (2).
According to the method mentioned in (1) of Example 21, pAGal9-MC1R was transfected to GBCR2 to prepare stable transformants.

[8] = system: CRE reporter in KJMGER8; experiment: Constitutive activity of GPCR, Method 5 (KJMGER8 co-transfected with pACREpluc, firefly luciferase); type: cell-based, human; conditions: 17β-estradiol 10 nmol/L, 1 day, activity with divided by activity without, control plasmid about 1
Method: After the cultivation, firefly luciferase activity was measured. […] It is judged that the higher the induction ratio of the cells to which a GPCR expression plasmid was transfected, the stronger the constitutive activity of the GPCR.

[9] = system: GPR12; experiment: Host clone selection: inducible expression of GPR12 (pAGal9-GPR12) by 17β-estradiol, CRE-luciferase readout; type: cell-based; conditions: 24 hours; for rising rate of luciferase activity upon addition of 17β-estradiol: 10 nmol/L, firefly luciferase
Method: To the 8 clones was transfected pAGal9-GPR12 [a plasmid for inducible expression of GPR12 which is a constitutively activated G-protein coupled receptor: refer to Example 22 which will be mentioned later] by the above electroporation method using 4 μg to 6×10^6 cells to prepare transformants.
pAGal9-GPR12 was transfected to the 2 clones to prepare stable transformants.

T4 sequence (Q01726 whole entry): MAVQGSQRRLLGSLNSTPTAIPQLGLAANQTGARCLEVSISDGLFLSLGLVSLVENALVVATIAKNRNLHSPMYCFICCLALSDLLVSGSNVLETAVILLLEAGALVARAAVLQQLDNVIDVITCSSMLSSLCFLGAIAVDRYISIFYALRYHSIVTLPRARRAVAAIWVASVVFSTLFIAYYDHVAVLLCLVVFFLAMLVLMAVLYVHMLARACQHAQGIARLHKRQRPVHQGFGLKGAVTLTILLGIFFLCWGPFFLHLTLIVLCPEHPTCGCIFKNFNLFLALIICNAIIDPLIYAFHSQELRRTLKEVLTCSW
T3 sequence (O15218 whole entry): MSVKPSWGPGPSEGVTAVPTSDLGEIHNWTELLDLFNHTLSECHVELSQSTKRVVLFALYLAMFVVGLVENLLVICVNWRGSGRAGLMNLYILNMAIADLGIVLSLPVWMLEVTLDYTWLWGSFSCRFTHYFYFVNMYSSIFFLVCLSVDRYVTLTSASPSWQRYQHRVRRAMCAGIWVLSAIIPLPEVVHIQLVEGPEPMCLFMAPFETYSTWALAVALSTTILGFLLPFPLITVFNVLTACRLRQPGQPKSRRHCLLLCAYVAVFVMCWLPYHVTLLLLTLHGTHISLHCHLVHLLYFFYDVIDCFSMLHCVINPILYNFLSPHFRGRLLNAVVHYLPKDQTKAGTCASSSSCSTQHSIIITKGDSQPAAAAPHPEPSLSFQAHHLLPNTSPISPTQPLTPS

How did the “agonist activity to GPR41” value [1] turn out when `CC(=O)O` [acetic acid] was run?
The value was “did not show an agonist activity”.

And the “induction ratio of the reporter (agonist for GPR43)” value [2]?
The value was 4 fold.

And the “action on assay cells to which other GPCRs were transfected” value [3]?
Its value is “did not act”.

How did the “increase of firefly luciferase activity” value ([4]; Namalwa KJM-1 with pACREpluc, forskolin 100 μmol/L, 5 hours) turn out when `C=C[C@@]1(C)CC(=O)[C@]2(O)[C@@]3(C)[C@@H](O)CCC(C)(C)[C@@H]3[C@H](O)[C@H](OC(C)=O)[C@@]2(C)O1` [forskolin] was run?
The value was “about 10 fold”.

“ACTH: adrenocorticotropic hormone (SYSMEHFRWGKPVGKKRRPVKVYPNGAEDESAEAFPLEF)” was tested. Which “induction ratio of the reporters (agonist for G10d)” value ([5]; 100 nmol/L of ACTH) did it give?
The value was 11 fold.

And the “action on GBCRC6 to which control vector (pAGal9-d) was transfected” value [6]?
The value was “did not act”.

How did the “concentration at which MC1R reacts (Renilla luciferase reporter)” value [7] turn out when “human PAMP-12: peptide consisting of the 9th to 20th amino acid residues from N terminal of PAMP (FRKKWNKWALSR; ends and bridges not checked; UniProt P35318 30-41, looked up, fragment)” was run?
Its value is “very low concentration”.

For GPR 3, which “Constitutive Activity (induction ratio)” value [8] is on record?
Its value is 6.5-fold.

Which “Constitutive Activity (induction ratio)” value [8] does the source give for GPR 26 here?
The value was 26-fold.

For “human PAMP: peptide comprising 20 amino acids excised from a precursor protein of adrenomedullin (ARLDVASEFRKKWNKWALSR; ends and bridges not checked; UniProt P35318 22-41, looked up)”, which “concentration at which MC1R reacts (Renilla luciferase reporter)” value [7] is on record?
The value was “very low concentration”.

Which “change of firefly luciferase activity” value ([4]; Namalwa KJM-1 with pACREpluc, A23187 10 μmol/L, 5 hours) does the source give for `CNc1ccc2oc(C[C@H]3O[C@@]4(CC[C@H]3C)O[C@H]([C@H](C)C(=O)c3ccc[nH]3)[C@H](C)C[C@H]4C)nc2c1C(=O)O` [A23187] here?
The value was “rarely changed”.

Which results are given for `O=C(O)C1CC1` [cyclopropanecarboxylic acid]?
induction ratio of the reporters (agonist for GPR41) [1]: 22 fold; action on assay cells to which other GPCRs were transfected [3]: did not act

For `CCC(=O)O` [propionic acid], which “induction ratio of the reporters (agonist for GPR41)” value [1] is on record?
The value was 21 fold.

What about the “induction ratio of the reporter (agonist for GPR43)” value [2] of the same molecule?
Its value is 5 fold.

What does the source list for `CCNC(=O)[C@H]1O[C@@H](n2cnc3c(N)ncnc32)[C@H](O)[C@@H]1O` [NECA, 5′-N-ethylcarboxamide adenosine]?
increase of Renilla reniformis luciferase activity versus no stimulation ([4]; 2 clones GBCR1 and GBCR2 (KJMGER8 with integrated pACRERluc), NECA 100 nmol/L): not less than 18 fold; rise of firefly luciferase activity versus no stimulation ([4]; 8 clones GBC1 to GBC8 (KJMGER8 with integrated pACREpluc), NECA stimulation): ≥ 60 fold; increase of firefly luciferase activity ([4]; Namalwa KJM-1 with pACREpluc, NECA 100 nmol/L, 5 hours): about 7 fold; firefly luciferase activity after 24 hours ([4]; Namalwa KJM-1 with pACREpluc, compared with highest activity at 6 hours): decreased to an extent of nearly one half; time after stimulation at which firefly luciferase activity was highest ([4]; Namalwa KJM-1 with pACREpluc, measured after 6, 24, 48, 72 and 96 hours): 6 h

What does the source list for α-MSH: α-melanocyte-stimulating hormone?
induction ratio of the reporters (agonist for G10d) ([5]; 100 μmol/L of α-MSH): 10 fold; action on GBCRC6 to which control vector (pAGal9-d) was transfected [6]: did not act

`CC(=O)O` [acetate] was tested. Which “induction ratio of the reporter (agonist for GPR43)” value [2] did it give?
The value was 9 fold.

Which “rising rate of luciferase activity upon addition of 17β-estradiol” value (“rising rate … of 17β-estradiol” for short) ([9]; GBC5 with pAGal9-GPR12) does the source give for `C[C@]12CC[C@@H]3c4ccc(O)cc4CC[C@H]3[C@@H]1CC[C@@H]2O` [17β-estradiol] here?
Its value is 56 fold.

What about the “rising rate … of 17β-estradiol” value ([9]; GBC6 with pAGal9-GPR12) of the same molecule?
Its value is 193 fold.

And the “rising rate … of 17β-estradiol” value ([9]; GBC7 with pAGal9-GPR12)?
The value was 364 fold.

And the “rising rate of Renilla reniformis luciferase activity when 17β-estradiol was added” value ([9]; GBCR2 with pAGal9-GPR12)?
The value was 364 fold.
